Measured values reported in US20070213378A1, “Compounds for modulating cell proliferation, compositions and methods related thereto” (LymphoSign Inc., priority 2006, published 2007).

Key:
Assay type in all cases: cell-based
HCT-116 = test: Cell proliferation assay (WST-1 and/or Alamar Blue), HCT-116; details: Homo sapiens; HCT-116, colorectal carcinoma; 72 hours incubation
Experimental: (§1) Compounds of the present invention were assayed for activity using a WST-1 cell proliferation assay and/or an Alamar Blue-based assay.
(§2) The WST-1 cell proliferation assay employed was obtained from Chemicon International, Inc. of Temecula, Calif. Further information on assay materials and procedure is provided at www.chemicon.com. The WST-1 cell proliferation assay relies on the formation of a formazan from a tetrazolium salt by cellular enzymes, whereby the amount of the obtained formazan dye as an indicator of viability is directly proportional to the number of metabolically active cells in culture.
(§3) Following 72 hours incubation of the respective cells in 50 μL/well with test compound, 10 μL of WST-1 reagent was added to each well and its contents briefly mixed. The cells were then incubated for 2 hours before absorbance of the dye was measured at 450 nm using a commercial UV/VIS microplate reader (Molecular Devices).
(§4) The Alamar Blue assay employed the CellTiter-Blue™ Cell Viability Assay from Promega Corporation of Madison, Wis. Further information on assay materials and procedure is provided at www.promega.com. The Alamar Blue-based CellTiter-Blue assay indicates cell viability by measuring the ability of cells in culture to reduce resazurin to resorufin, whereby the intensity of the fluorescence signal is directly proportional to the number of live cells. […]

CCRF-CEM = test: Cell proliferation assay (WST-1 and/or Alamar Blue), CCRF-CEM; details: human T-cell derived lymphoblastic leukemia, 72 hours incubation
Experimental: as §1, §2, §3, §4

ACHN = test: Cell proliferation assay (WST-1 and/or Alamar Blue), ACHN; details: Homo sapiens, renal cell adenocarcinoma, 72 hours incubation
Experimental: as §1, §2, §3, §4

MCF-7 = test: Cell proliferation assay (WST-1 and/or Alamar Blue), MCF-7; details: Homo sapiens, MCF7; MCF-7, epithelial mammary adenocarcinoma; 72 hours incubation
Experimental: as §1, §2, §3, §4

786-0 = test: Cell proliferation assay (WST-1 and/or Alamar Blue), 786-0; details: Homo sapiens; 786-0, renal cell adenocarcinoma; 72 hours incubation
Experimental: as §1, §2, §3, §4

DAOY = test: Cell proliferation assay (WST-1 and/or Alamar Blue), DAOY; details: Homo sapiens, cerebellar medulloblastoma, 72 hours incubation
Experimental: as §1, §2, §3, §4

SUP-B15 = test: Cell proliferation assay (WST-1 and/or Alamar Blue), SUP-B15; details: SUP-B15, human B-cell derived acute lymphoblastic leukemia; 72 hours incubation
Experimental: as §1, §2, §3, §4

SKOV-3 = test: Cell proliferation assay (WST-1 and/or Alamar Blue), SKOV-3; details: Homo sapiens, SK-OV-3; SKOV-3, ovarian adenocarcinoma; 72 hours incubation
Experimental: as §1, §2, §3, §4

MOLM-13 = test: Cell proliferation assay (WST-1 and/or Alamar Blue), MOLM-13; details: MOLM-13, human acute myeloid leukemia; 72 hours incubation
Experimental: as §1, §2, §3, §4

PEER = test: Cell proliferation assay (WST-1 and/or Alamar Blue), PEER; details: human T-cell derived lymphoblastic leukemia, 72 hours incubation
Experimental: as §1, §2, §3, §4

MDA-MB453 = test: Cell proliferation assay (WST-1 and/or Alamar Blue), MDA-MB453; details: Homo sapiens, MDA-MB-453; MDA-MB453, metastatic breast carcinoma; 72 hours incubation
Experimental: as §1, §2, §3, §4

DU145 = test: Cell proliferation assay (WST-1 and/or Alamar Blue), DU145; details: Homo sapiens, DU-145; DU145, prostate carcinoma; 72 hours incubation
Experimental: as §1, §2, §3, §4

RS4-11 = test: Cell proliferation assay (WST-1 and/or Alamar Blue), RS4-11; details: RS4-11, human B-cell derived acute lymphoblastic leukemia; 72 hours incubation
Experimental: as §1, §2, §3, §4

A549 = test: Cell proliferation assay (WST-1 and/or Alamar Blue), A549; details: Homo sapiens; A549, lung carcinoma; 72 hours incubation
Experimental: as §1, §2, §3, §4

C1 = test: Cell proliferation assay (WST-1 and/or Alamar Blue), C1; details: C1, human B-cell derived acute lymphoblastic leukemia; 72 hours incubation
Experimental: as §1, §2, §3, §4

MOLT-4 = test: Cell proliferation assay (WST-1 and/or Alamar Blue), MOLT-4; details: MOLT-4, human T-cell derived lymphoblastic leukemia; 72 hours incubation
Experimental: as §1, §2, §3, §4

SKM-1 = test: Cell proliferation assay (WST-1 and/or Alamar Blue), SKM-1; details: SKM-1, human acute myeloid leukemia; 72 hours incubation
Experimental: as §1, §2, §3, §4

OVCAR-5 = test: Cell proliferation assay (WST-1 and/or Alamar Blue), OVCAR-5; details: Homo sapiens; OVCAR-5, ovarian carcinoma; 72 hours incubation
Experimental: as §1, §2, §3, §4

NCI-H460 = test: Cell proliferation assay (WST-1 and/or Alamar Blue), NCI-H460; details: Homo sapiens; NCI-H460, large cell lung carcinoma; 72 hours incubation
Experimental: as §1, §2, §3, §4

MV4-11 = test: Cell proliferation assay (WST-1 and/or Alamar Blue), MV4-11; details: MV4-11, human acute myelo-monocytic leukemia; 72 hours incubation
Experimental: as §1, §2, §3, §4

SK-MEL-5 = test: Cell proliferation assay (WST-1 and/or Alamar Blue), SK-MEL-5; details: Homo sapiens; SK-MEL-5, malignant melanoma; 72 hours incubation
Experimental: as §1, §2, §3, §4

PC3 = test: Cell proliferation assay (WST-1 and/or Alamar Blue), PC3; details: Homo sapiens, PC-3; PC3, prostate adenocarcinoma; 72 hours incubation
Experimental: as §1, §2, §3, §4

MiaPACA-2 = test: Cell proliferation assay (WST-1 and/or Alamar Blue), MiaPACA-2; details: Homo sapiens, MIA PaCa-2; MiaPACA-2, pancreas carcinoma; 72 hours incubation
Experimental: as §1, §2, §3, §4

PANC-1 = test: Cell proliferation assay (WST-1 and/or Alamar Blue), PANC-1; details: Homo sapiens; PANC-1, pancreas duct epithelial carcinoma; 72 hours incubation
Experimental: as §1, §2, §3, §4

OCI-AML2 = test: Cell proliferation assay (WST-1 and/or Alamar Blue), OCI-AML2; details: OCI-AML2, human acute myeloid leukemia; 72 hours incubation
Experimental: as §1, §2, §3, §4

KASUMI-1 = test: Cell proliferation assay (WST-1 and/or Alamar Blue), KASUMI-1; details: KASUMI-1, human acute myeloid leukemia; 72 hours incubation
Experimental: as §1, §2, §3, §4

IC50 (HCT-116): 17.3 µM
IC50 (CCRF-CEM): 0.97 µM
IC50 (ACHN): 5 µM
IC50 (MCF-7): > 20 µM
IC50 (786-0): 4.34 µM
IC50 (SKOV-3): 3.5 µM
IC50 (MOLM-13): 0.83 µM
IC50 (MDA-MB453): 1.71 µM
IC50 (DU145): 6.14 µM
IC50 (RS4-11): 0.13 µM
IC50 (A549): 19.1 µM
IC50 (MOLT-4): 0.34 µM
IC50 (SKM-1): 0.6 µM
IC50 (OVCAR-5): 6.65 µM
IC50 (NCI-H460): 2.32 µM
IC50 (MV4-11): 0.93 µM
IC50 (SK-MEL-5): 2.39 µM
IC50 (PC3): 2.35 µM
IC50 (MiaPACA-2): 3.36 µM
IC50 (PANC-1): > 20 µM
IC50 (OCI-AML2): 0.35 µM
SMILES: CC(C)C(=O)Nc1cccc(C(=O)Nc2nnc(CCc3ccccc3)s2)c1 [Compound A]
IC50 (DAOY): 2.7 µM
IC50 (SUP-B15): 4.82 µM
IC50 (PEER): > 20 µM
IC50 (C1): 0.57 µM
IC50 (KASUMI-1): ≥ 20 µM
